Measured values reported in US9309254B2, “Pyrimidinyl-diazospiro compounds” (CONVERGENCE PHARMACEUTICALS LIMITED, priority 2012, dated 2016).
Structures can show the parent of a compound that is named as a salt. Where two headings read alike, the source gives them in different places.

Molecular target: T1, hNaV1.7 (Homo sapiens, UniProt Q15858)
T1 construct: expressed in transfected cells; host or cells: HEK293
Assay: QPatch NaV1.7 assay
Type: cell-based
Details: HEK293-hNaV1.7 cells, QPatch16x
Protocol: The compounds of the invention were tested in a QPatch NaV1.7 assay.
HEK293-hNaV1.7 cells were grown in DMEM-F12+10% FBS culture media at 37° C. At a confluency of 50-70% cells were dissociated from culture flasks & triturated to ensure unicellular cell suspension; cell density was measured & adjusted to 2-3×10^6 cells/ml. Recordings were obtained using QPatch16x. The external solution was (in mM): NaCl, 128; KCl, 5; MgCl2, 2; CaCl2, 2; Glucose, 30; HEPES, 15; pH 7.3, 305-315 mOsm. Following seal formation and whole-cell access using internal solution (containing in mM: CsF, 135; EGTA/CsOH, 1/5; HEPES 10; NaCl, 10; pH 7.3, 310-320mOsM), voltage pulse protocols were applied. Initially a steady state inactivation voltage protocol was used to determine the half-maximal voltage for steady state inactivation (V1/2 SSI). Two holding voltages were used to determine test drug inhibition: −90 mV, where most of the channels are in a closed state; and V1/2 SSI, where half of the channels are inactivated. Currents were elicited every 10 seconds by stepping to a membrane potential of 0 mV for 20 ms. Four-point cumulative concentration responses were derived by determining the peak current amplitude at each concentration of test drug over 120 second application. Curves were fitted with the Hill equation yielding pIC50 values at −90 mV and V1/2 SSI holding potentials.

[1] = holding voltage V1/2 SSI, where half of the channels are inactivated, read-out: QP Nav1.7 SSI vhalf pIC50 (converted)
[2] = holding voltage −90 mV, where most of the channels are in a closed state, read-out: QP Nav1.7 - 90 mV pIC50 (converted)

T1 sequence (Q15858 whole entry): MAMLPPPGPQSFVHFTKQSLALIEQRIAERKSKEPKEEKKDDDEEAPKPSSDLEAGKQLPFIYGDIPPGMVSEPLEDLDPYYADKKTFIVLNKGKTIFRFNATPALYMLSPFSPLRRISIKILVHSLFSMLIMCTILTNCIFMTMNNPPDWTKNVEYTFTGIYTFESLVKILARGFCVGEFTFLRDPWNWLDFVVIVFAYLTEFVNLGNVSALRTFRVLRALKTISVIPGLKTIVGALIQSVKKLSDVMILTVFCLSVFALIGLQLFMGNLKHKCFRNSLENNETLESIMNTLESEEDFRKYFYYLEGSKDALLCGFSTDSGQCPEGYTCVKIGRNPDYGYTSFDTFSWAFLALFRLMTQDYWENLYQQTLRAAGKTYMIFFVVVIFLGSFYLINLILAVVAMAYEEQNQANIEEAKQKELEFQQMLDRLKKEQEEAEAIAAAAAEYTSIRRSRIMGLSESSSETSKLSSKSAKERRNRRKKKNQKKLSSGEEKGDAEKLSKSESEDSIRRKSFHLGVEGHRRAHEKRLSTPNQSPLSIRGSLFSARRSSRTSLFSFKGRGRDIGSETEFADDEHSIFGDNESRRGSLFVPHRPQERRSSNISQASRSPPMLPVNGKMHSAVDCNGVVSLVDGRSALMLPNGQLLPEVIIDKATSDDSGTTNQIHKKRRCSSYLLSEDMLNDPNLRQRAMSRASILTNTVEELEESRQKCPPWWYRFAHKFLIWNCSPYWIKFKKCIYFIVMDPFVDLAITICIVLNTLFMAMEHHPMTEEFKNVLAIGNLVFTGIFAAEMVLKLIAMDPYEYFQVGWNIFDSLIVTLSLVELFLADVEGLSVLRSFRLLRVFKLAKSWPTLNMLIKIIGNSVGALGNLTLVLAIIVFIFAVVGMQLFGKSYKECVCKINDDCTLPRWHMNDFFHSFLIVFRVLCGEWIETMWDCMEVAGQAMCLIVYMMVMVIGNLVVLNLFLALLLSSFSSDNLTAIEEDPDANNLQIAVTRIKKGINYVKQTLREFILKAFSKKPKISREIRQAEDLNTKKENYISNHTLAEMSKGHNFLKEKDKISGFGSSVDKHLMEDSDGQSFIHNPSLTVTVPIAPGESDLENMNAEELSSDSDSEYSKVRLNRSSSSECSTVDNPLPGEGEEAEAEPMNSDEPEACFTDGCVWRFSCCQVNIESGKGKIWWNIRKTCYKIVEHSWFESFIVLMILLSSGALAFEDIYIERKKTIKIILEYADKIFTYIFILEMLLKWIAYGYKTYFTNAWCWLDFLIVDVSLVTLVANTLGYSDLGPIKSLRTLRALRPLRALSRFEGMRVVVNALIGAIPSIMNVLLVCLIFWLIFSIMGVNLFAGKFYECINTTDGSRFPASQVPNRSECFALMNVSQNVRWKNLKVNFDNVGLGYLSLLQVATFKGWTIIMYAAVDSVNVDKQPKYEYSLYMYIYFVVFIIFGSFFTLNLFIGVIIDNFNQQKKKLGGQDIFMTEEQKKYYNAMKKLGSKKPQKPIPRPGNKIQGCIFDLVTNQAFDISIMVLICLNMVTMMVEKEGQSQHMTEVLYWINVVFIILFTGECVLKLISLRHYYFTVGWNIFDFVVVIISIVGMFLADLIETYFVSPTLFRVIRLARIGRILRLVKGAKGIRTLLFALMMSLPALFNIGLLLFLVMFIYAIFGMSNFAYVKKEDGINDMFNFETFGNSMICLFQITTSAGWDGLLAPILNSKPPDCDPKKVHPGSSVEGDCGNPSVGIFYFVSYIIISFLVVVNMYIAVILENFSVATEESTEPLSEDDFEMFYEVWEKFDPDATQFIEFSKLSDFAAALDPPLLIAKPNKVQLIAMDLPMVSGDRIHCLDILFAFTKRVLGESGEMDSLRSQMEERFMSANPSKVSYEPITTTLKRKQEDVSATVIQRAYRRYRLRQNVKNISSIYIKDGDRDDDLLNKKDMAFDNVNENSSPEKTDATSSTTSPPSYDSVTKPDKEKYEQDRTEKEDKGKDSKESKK

Row | IC50 [1] | IC50 [2] | Structure (SMILES) | QP Nav1.7 SSI vhalf pIC50 (holding voltage V1/2 SSI, where half of the channels are inactivated)
1 | 39.8 µM | 158 µM | Cc1cc(-c2ccc(C(F)(F)F)cc2)nc([C@@H]2CC[C@@]3(CC(C)(C)NC3=O)N2)n1 [Example 44, (2S,5S)-8,8-Dimethyl-2-[4-methyl-6-[4-(trifluoromethyl)phenyl]pyrimidin-2-yl]-1,7-diazaspiro[4.4]nonan-6-one hydrochloride] | –
2 | 3.16 µM | 25.1 µM | Cc1cc(-c2ccc(C(F)(F)F)cc2)nc([C@H]2CC[C@]3(CC(C)(C)NC3=O)N2)n1 [Example 46, (2R,5R)-8,8-Dimethyl-2-[4-methyl-6-[4-(trifluoromethyl)phenyl]pyrimidin-2-yl]-1,7-diazaspiro[4.4]nonan-6-one hydrochloride] | –
3 | 79.4 µM | 316 µM | Cc1cc(-c2ccc(C(F)(F)F)cc2)nc([C@H]2CC[C@]3(CCN(C)C3=O)N2)n1 [Example 6, (2R,5R)-7-Methyl-2-[4-methyl-6-[4-(trifluoromethyl)phenyl]pyrimidin-2-yl]-1,7-diazaspiro[4.4]nonan-6-one hydrochloride] | –
4 | 25.1 µM | 200 µM | CN1CC[C@]2(CC[C@@H](c3nccc(-c4cccc(OC(F)(F)F)c4)n3)N2)C1=O [Example 20, (2S,5R)-7-Methyl-2-[4-[3-(trifluoromethoxy)phenyl]pyrimidin-2-yl]-1,7-diazaspiro[4.4]nonan-6-one hydrochloride] | –
5 | 7.94 µM | 50.1 µM | CC(C)Oc1ccc(-c2ccnc([C@H]3CC[C@@]4(CCN(C)C4=O)N3)n2)cc1 [Example 25, (2R,5S)-2-[4-(4-Isopropoxyphenyl)pyrimidin-2-yl]-7-methyl-1,7-diazaspiro[4.4]nonan-6-one hydrochloride] | –
6 | 5.01 µM | 31.6 µM | Cc1cc(-c2ccc(C(F)(F)F)cc2)nc([C@H]2CC[C@@]3(CC(C)(C)NC3=O)N2)n1 [Example 43, (2R,5S)-8,8-Dimethyl-2-[4-methyl-6-[4-(trifluoromethyl)phenyl]pyrimidin-2-yl]-1,7-diazaspiro[4.4]nonan-6-one hydrochloride] | –
7 | 15.8 µM | 126 µM | Cc1cc(-c2ccc(C(F)(F)F)cc2)nc([C@H]2CC[C@@]3(CCNC3=O)N2)n1 [Example 39, (2R,5S)-2-[4-Methyl-6-[4-(trifluoromethyl)phenyl]pyrimidin-2-yl]-1,7-diazaspiro[4.4]-nonan-6-one hydrochloride] | –
8 | 39.8 µM | 251 µM | CN1CC[C@]2(CC[C@H](c3nccc(-c4ccc(C(F)(F)F)cc4)n3)N2)C1=O [Example 4, (2R,5R)-7-Methyl-2-[4-[4-(trifluoromethyl)-phenyl]-pyrimidin-2-yl]-1,7-diazaspiro[4.4]nonan-6-one hydrochloride] | –
9 | 3.16 µM | 50.1 µM | CCOc1ccc(F)c(-c2cc(C)nc([C@@H]3CC[C@@]4(CCCNC4=O)N3)n2)c1 [Example 38, hydrochloride] | –
10 | 20 µM | 100 µM | Cc1cc(-c2ccc(C(F)(F)F)cc2)nc([C@@H]2CC[C@]3(CC(C)(C)NC3=O)N2)n1 [Example 45, (2S,5R)-8,8-Dimethyl-2-[4-methyl-6-[4-(trifluoromethyl)phenyl]pyrimidin-2-yl]-1,7-diazaspiro[4.4]nonan-6-one hydrochloride] | –
11 | 63.1 µM | 7940 µM | Cc1cc(-c2ccc(C(F)(F)F)cc2)nc([C@@H]2CC[C@@]3(CCN(C)C3=O)N2)n1 (single isomer, unassigned) [Example 22, hydrochloride] | –
12 | 50.1 µM | 631 µM | CC(C)Oc1ccc(-c2ccnc([C@@H]3CC[C@@]4(CCN(C)C4=O)N3)n2)cc1 [Example 26, (2S,5S)-2-[4-(4-Isopropoxyphenyl)pyrimidin-2-yl]-7-methyl-1,7-diazaspiro[4.4]nonan-6-one hydrochloride] | –

Row | Structure (SMILES) | IC50 [1] | IC50 [2] | QP Nav1.7 SSI vhalf pIC50 (holding voltage V1/2 SSI, where half of the channels are inactivated)
13 | Cc1cc(-c2ccc(C(F)(F)F)cc2)nc([C@H]2CC[C@@]3(CCN(C)C3=O)N2)n1.Cl [Example 7, (2R,5S)-7-Methyl-2-[4-methyl-6-[4-(trifluoromethyl)-phenyl]pyrimidin-2-yl]-1,7-diazaspiro[4.4]nonan-6-one hydrochloride] | – | 126 µM | 5.7
